For ten compounds, IC50 results are on record in patent US20210380548A1, “Fused [1,2,4]Thiadiazine Derivatives Which Act as KAT Inhibitors of the MYST Family” (CTxT Pty Limited, priority 2017, published 2021).

SMILES strings stand for the structures.

Assay [1] relates to histone H3K14 acetylation (HBO1 mediated) in U2OS cells. In words: Histone H3 Lysine 14 Acetylation Biomarker Assay (96 well, U2OS). The format is cell-based. The following applies: Table 6, H3K14ac, 24 hours incubation, serum free medium. Here is the method: Compounds may be tested for their ability to inhibit acetylation of the histone H3K14 marker (which is HBO1 mediated) in the following assay:
The cell line U2OS was seeded at a density of 12,000 cells per well in 96 well optical quality tissue culture plates in RPMI medium and 10% foetal bovine serum, and allowed to adhere for 24 hours under standard culture conditions (37 degree Celsius, 5% CO2). At the end of this period the cells were washed with serum free medium. Compound dilutions prepared in DMSO were added to the serum free medium, with negative control wells reserved for treatment with DMSO only and positive controls receiving a potent inhibitor compound (e.g. Example 36 in WO2016/198507) at 10 μM concentration. After incubation for 24 hours, the cells were fixed with 3.7% formaldehyde in PBS for 20 minutes at room temperature, washed with phosphate buffer saline containing 0.1% Tween 20 and blocked with Odyssey blocking buffer (LI-COR, Lincoln, Nebr.) containing 0.1% TritonX100. Anti-H3K14ac specific antibody (Cell Signalling Technologies) in Odyssey blocking buffer containing 0.1% Tween 20 was added and incubated for 14 hours at 4 degree Celsius. After washing, a secondary antibody labelled with Alexa647 dye (LifeTechnologies) and Hoechst 33342 (1 μg/mL, SigmaAldrich) were added for 1 hour incubation. Plates were washed and read on a PerkinElmer Phenix high content imaging platform. Using a Columbus image analysis pipeline, individual nuclei were located by Hoechst 33342 stain and the acetylation level was calculated from the Alexa647-related intensity in the same area. The resulting mean intensity per cell was directly converted to percent inhibition relative to controls on the same plate and the data fitted against a four-parameter logistic model to determine the 50% inhibitory concentration (IC50).

Assay [2] has as its target T1, HBO-KAT7 (Homo sapiens, UniProt O95251).
T1 construct: encoding amino acid residues 325 to 611 (Uniprot 095251-1) of human KAT7; made in house; host or cells: E. coli BL21 DE3 RIL
In words: Acetyltransferase biochemical assay (AlphaScreen), KAT7. The following applies: Table 3 (HBO-KAT7); 0.4 μM Acetyl coenzyme A, histone H3.1, 40 nM enzyme. On the technique in general: Bead proximity is the source of the signal in Alpha formats.

Assay [3] addresses T2, TIP60-KAT5 (Homo sapiens, UniProt Q92993).
T2 construct: encoding amino acid residues 2 to 461 (Uniprot Q92993-2) of human KAT5 isoform; made in house; host or cells: E. coli BL21 DE3
In words: Acetyltransferase biochemical assay (AlphaScreen), KAT5. The note with it: Table 1 (TIP60-KAT5); 0.4 μM Acetyl coenzyme A, histone H4, 10 nM enzyme.

The target in assay [4] is T3, MOF-KAT8 (Homo sapiens, UniProt Q9H7Z6).
T3 sequence (Q9H7Z6 177-447): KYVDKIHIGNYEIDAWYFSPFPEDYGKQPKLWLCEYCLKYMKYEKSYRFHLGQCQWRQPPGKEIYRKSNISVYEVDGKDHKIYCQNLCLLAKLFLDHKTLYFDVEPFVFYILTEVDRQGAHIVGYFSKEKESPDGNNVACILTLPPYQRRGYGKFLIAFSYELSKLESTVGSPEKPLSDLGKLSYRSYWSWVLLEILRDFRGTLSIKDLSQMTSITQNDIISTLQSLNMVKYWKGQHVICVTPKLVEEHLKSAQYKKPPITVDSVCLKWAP
Put plainly: Acetyltransferase biochemical assay (AlphaScreen), KAT8. The following applies: Table 4 (MOF-KAT8); 0.4 μM Acetyl coenzyme A, histone H4, 20 nM enzyme.

For assay [5], the target named is T4, MOZ-KAT6A (Homo sapiens, UniProt Q92794, A567V).
T4 construct: encoding amino acid residues 507 to 778 (Uniprot Q92794-1) of human KAT6A; made in house; host or cells: E. coli BL21 DE3
In words: Acetyltransferase biochemical assay (AlphaScreen), KAT6A. The following applies: Table 2 (MOZ-KAT6A); 10 μM Acetyl coenzyme A, histone H3.1, 5 nM enzyme.

Assay [6] has as its target T4, MOZ-KAT6A. Put plainly: Revised Acetyltransferase Biochemical Assay, KAT6A. The following applies: Table 8 (MOZ-KAT6A), 1 μM Acetyl coenzyme A.
The target of assay [7] is T1, HBO-KAT7. In words: Revised Acetyltransferase Biochemical Assay, KAT7. The following applies: Table 9 (HBO-KAT7), 1 μM Acetyl coenzyme A.
Assay [8] concerns the target T2, TIP60-KAT5. In words: Revised Acetyltransferase Biochemical Assay, KAT5. The following applies: 10 nM KAT5, 1 μM AcCoA, 100 nM histone H4, 90 min.
Assay [9] deals with T3, MOF-KAT8. Put plainly: Revised Acetyltransferase Biochemical Assay, KAT8.
Assay [10] deals with histone H2A.Z Lysine 7 acetylation (TIP60 mediated) in U2OS cells. Put plainly: H2A.Z Lysine 7 Acetylation Biomarker Assay (384-well, U2OS). The format is cell-based. The note with it: Homo sapiens, serum free medium, 24 hours incubation. Summed up:
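U2OS cells (3,000/well) were treated with compound for 24 h after a serum-free wash, then fixed. They were stained with anti-H2A.ZK7ac, an AlexaFluor 488 secondary and Hoechst. High-content imaging gave mean nuclear intensity per cell, converted to percent inhibition against on-plate controls, and IC50 came from a four-parameter logistic fit.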

The subject of assay [11] is histone H3 Lysine 14 acetylation (HBO1 mediated) in U2OS cells. In words: Histone H3 Lysine 14 Acetylation Biomarker Assay (384-well, U2OS). The following applies: Homo sapiens, serum free medium, 24 hours incubation. The format is cell-based. Summed up:
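U2OS cells in serum-free medium treated with compound 24 h; DMSO and 10 μM reference inhibitor as 0% and 100% controls. Fixed cells immunostained for H3K14ac (AlexaFluor 488) with Hoechst nuclear mask, imaged by high-content analysis; per-cell intensity converted to % inhibition, IC50 by four-parameter logistic fit.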

The next assay has as its target T5, QKF-KAT6B (Homo sapiens, UniProt Q8WYB5).
T5 construct: purchased SignalChem K315-381BG
In words: Revised Acetyltransferase Biochemical Assay, KAT6B. The note with it: 8 nM KAT6B, 1 μM AcCoA, 100 nM histone H3.1, 90 min. The text has this:
KAT6B was obtained from SignalChem, catalog ID: K315-381BG

Assay [12] has as its system histone H3K23 acetylation (KATE mediated) in U2OS cells. In words: Histone H3 Lysine 23 Acetylation Biomarker Assay (U2OS). The note with it: Homo sapiens, 96 well, 24 hours incubation. Type of assay: cell-based. In outline:
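U2OS cells were treated with compound for 24 h, then fixed and immunostained for H3K23ac with Hoechst nuclear counterstain. Per-nucleus Alexa647 intensity was quantified by high-content imaging and converted to % inhibition against DMSO and 10 μM reference-inhibitor controls. IC50 was derived from a four-parameter logistic fit.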

The term IC50 denotes the point on the concentration scale where inhibition reaches its midpoint. A higher IC50 goes with weaker potency.

T4 sequence (Q92794 507-778 A567V limits assumed): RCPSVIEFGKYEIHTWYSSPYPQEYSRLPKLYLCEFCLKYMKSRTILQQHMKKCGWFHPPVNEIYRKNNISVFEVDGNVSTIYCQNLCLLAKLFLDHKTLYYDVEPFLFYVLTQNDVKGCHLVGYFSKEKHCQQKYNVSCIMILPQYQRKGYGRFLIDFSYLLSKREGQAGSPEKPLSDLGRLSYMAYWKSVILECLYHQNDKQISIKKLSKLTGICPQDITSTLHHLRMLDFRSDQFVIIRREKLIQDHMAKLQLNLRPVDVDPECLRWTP
T2 sequence (Q92993 2-461 isoform Q92993-2): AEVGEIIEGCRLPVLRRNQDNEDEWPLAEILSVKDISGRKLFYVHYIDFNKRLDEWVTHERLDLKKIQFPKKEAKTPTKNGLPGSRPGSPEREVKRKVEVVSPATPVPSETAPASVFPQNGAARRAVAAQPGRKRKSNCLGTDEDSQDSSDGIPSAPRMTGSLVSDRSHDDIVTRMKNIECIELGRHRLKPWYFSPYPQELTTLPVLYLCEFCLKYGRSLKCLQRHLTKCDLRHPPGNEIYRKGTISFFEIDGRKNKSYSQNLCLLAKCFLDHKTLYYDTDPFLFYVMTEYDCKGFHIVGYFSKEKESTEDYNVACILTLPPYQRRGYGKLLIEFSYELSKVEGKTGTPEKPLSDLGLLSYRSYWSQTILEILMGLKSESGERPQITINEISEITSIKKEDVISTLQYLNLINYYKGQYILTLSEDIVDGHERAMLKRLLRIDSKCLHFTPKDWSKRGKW
T1 sequence (O95251 with tags, fused parts or gaps): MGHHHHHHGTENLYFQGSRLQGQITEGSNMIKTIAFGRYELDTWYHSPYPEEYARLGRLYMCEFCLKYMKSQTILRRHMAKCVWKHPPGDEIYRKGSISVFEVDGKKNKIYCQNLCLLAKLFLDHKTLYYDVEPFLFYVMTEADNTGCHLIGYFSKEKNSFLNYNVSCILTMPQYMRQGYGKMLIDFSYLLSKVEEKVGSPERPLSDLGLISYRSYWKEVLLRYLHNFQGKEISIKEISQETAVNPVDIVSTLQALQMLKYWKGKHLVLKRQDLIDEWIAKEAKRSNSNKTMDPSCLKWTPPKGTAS
T5 sequence (Q8WYB5 whole entry): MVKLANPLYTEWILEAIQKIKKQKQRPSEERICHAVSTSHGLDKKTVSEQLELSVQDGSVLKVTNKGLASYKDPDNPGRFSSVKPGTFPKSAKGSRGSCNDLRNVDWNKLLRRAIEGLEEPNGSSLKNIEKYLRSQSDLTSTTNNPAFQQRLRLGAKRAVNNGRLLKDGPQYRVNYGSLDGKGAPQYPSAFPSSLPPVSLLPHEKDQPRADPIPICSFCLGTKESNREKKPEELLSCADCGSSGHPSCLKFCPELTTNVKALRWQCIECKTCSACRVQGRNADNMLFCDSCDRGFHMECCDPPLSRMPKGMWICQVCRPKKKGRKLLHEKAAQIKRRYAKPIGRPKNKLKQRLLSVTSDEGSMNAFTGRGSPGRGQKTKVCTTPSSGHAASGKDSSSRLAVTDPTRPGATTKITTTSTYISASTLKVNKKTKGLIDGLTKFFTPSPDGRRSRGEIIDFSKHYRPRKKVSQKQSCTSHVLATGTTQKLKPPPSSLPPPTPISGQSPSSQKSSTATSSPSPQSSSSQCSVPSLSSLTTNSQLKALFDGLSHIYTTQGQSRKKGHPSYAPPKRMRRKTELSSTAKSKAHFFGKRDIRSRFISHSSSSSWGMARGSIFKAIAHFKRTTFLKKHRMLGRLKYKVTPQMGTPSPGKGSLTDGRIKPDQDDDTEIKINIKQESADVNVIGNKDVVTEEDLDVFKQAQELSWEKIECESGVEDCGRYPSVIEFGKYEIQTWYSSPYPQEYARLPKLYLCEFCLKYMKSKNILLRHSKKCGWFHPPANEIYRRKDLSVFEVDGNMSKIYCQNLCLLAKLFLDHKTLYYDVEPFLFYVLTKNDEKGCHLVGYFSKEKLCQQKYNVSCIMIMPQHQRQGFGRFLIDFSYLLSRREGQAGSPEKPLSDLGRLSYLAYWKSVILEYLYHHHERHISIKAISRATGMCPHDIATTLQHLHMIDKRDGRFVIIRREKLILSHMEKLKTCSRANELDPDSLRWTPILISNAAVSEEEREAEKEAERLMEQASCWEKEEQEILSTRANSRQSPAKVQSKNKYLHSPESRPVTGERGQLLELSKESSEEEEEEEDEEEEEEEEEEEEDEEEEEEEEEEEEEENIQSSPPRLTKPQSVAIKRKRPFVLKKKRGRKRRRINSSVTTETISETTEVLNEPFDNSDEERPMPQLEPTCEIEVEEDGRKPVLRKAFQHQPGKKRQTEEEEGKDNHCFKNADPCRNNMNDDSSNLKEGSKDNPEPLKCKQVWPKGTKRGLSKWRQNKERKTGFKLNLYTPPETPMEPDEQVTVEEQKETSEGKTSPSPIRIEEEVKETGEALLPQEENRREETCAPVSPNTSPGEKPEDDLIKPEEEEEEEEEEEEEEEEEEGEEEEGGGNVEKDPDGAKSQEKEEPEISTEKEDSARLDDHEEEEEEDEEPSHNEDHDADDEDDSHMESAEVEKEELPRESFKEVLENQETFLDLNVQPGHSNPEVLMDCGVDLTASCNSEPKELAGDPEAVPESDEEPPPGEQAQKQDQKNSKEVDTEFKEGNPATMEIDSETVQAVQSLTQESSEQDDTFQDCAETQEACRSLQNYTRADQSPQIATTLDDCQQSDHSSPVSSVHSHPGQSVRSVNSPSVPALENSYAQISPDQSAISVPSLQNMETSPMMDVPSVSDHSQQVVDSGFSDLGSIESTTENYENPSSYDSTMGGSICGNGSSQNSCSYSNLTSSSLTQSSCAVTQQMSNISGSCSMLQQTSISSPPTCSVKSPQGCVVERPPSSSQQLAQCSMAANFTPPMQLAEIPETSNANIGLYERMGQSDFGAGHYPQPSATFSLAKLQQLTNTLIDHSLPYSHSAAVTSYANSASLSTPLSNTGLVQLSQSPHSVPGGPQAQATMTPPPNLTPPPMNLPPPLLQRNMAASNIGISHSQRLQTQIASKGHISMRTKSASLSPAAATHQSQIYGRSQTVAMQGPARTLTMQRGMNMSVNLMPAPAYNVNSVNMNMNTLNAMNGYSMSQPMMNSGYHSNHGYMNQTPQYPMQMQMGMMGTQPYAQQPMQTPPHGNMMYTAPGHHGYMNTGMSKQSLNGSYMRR

Regarding `O=C(NCCc1ccccc1OC(F)(F)F)C1=Nc2ccc(I)cc2S(=O)(=O)N1` [Example 92], the IC50 amounted to 1.39 µM in [1] (Homo sapiens, 24 h); 0.675 µM against HBO-KAT7 [2]; 0.367 µM against TIP60-KAT5 [3]; 21.8 µM at MOF-KAT8 [4]; 0.783 µM on MOZ-KAT6A [5].

In the case of `O=C(NCC(c1ccc(F)cc1)c1ccccn1)C1=Nc2ccc(Br)cc2S(=O)(=O)N1` (stereo not shown) [Example 39, 7-bromo-N-(2-(4-fluorophenyl)-2-(pyridin-2-yl)ethyl)-2H-benzo[e][1,2,4]thiadiazine-3-carboxamide 1,1-dioxide], the IC50 stood at 2.49 µM in assay [1] (Homo sapiens, 24 h); 0.192 µM against HBO-KAT7 [2]; 0.032 µM against MOZ-KAT6A [6]; 0.299 µM against HBO-KAT7 [7]; 5.88 µM against TIP60-KAT5 [3]; 3.06 µM against TIP60-KAT5 [8].

`[C-]#[N+]c1ccc2c(c1)S(=O)(=O)NC(C(=O)NCC(c1ccccc1)c1ncco1)=N2` (single isomer, unassigned) [Example 142]: the IC50 came out at 17.5 µM in [1]; 6.57 µM at HBO-KAT7 [2]; 4.27 µM at TIP60-KAT5 [3]; 56.7 µM on MOF-KAT8 [4]; 0.0211 µM on MOZ-KAT6A [5].

For the compound `O=C(NCCc1ccccc1OC(F)F)C1=Nc2ccc(Br)cc2S(=O)(=O)N1` [Example 115], the IC50 was found to be 1.06 µM in assay [1] (Homo sapiens, 24 h); 0.229 µM against HBO-KAT7 [2]; 0.423 µM against TIP60-KAT5 [3]; 31.2 µM against MOF-KAT8 [4]; 0.476 µM against MOZ-KAT6A [5].

On to `Cc1noc(C(CNC(=O)C2=Nc3ccc(I)cc3S(=O)(=O)N2)c2ccccc2)n1` (stereo not shown) [Example 56], for which the concentration for half-maximal inhibition (IC50) was found to be 0.65 µM in assay [1] (Homo sapiens, 24 h); 0.219 µM at HBO-KAT7 [2]; 0.01 µM at MOZ-KAT6A [6]; 0.063 µM against HBO-KAT7 [7]; 0.269 µM on TIP60-KAT5 [3]; 1.3 µM against MOF-KAT8 [9]. The IC50 against TIP60-KAT5 [8] amounted to 0.061 µM; against MOZ-KAT6A [5], 0.0809 µM.

Turning to `O=C(NCC(c1ncco1)c1ccccc1OC(F)F)C1=Nc2ccc(I)cc2S(=O)(=O)N1` (stereo not shown) [Example 179], the IC50 against MOZ-KAT6A [6] was determined as 0.005 µM; at HBO-KAT7 [7] it was 0.028 µM; in assay [10], 1.1 µM; at MOF-KAT8 [9], 9.66 µM; in assay [11], 0.219 µM; on TIP60-KAT5 [8], 0.029 µM. The half-maximal inhibitory concentration (IC50) against QKF-KAT6B worked out at 0.088 µM; in [12], 0.112 µM; on MOF-KAT8 [4] it was 10.4 µM.

Turning to `O=C(NCC(c1ccccc1)c1ncco1)C1=Nc2ccccc2S(=O)(=O)N1` (single isomer, unassigned) [Example 136], the IC50 in assay [1] was 7.89 µM; against HBO-KAT7 [2], 0.633 µM; against TIP60-KAT5 [3], 27.6 µM; at MOF-KAT8 [4], over 125 µM; against MOZ-KAT6A [5], 8.03 µM.

Regarding `[C-]#[N+]c1ccc2c(c1)S(=O)(=O)NC(C(=O)NCC(c1ccccc1)c1ncco1)=N2` (single isomer, unassigned) [Example 143], the IC50 in assay [1] stood at 14.6 µM; on HBO-KAT7 [2], 1.75 µM; at TIP60-KAT5 [3], 13.8 µM; at MOF-KAT8 [4], 30 µM; against MOZ-KAT6A [5], 0.346 µM.

For the compound `O=C(NCC(c1ccccc1)c1nccs1)C1=Nc2ccc(I)cc2S(=O)(=O)N1` (stereo not shown) [Example 167], the IC50 at MOZ-KAT6A [6] amounted to 0.004 µM; on HBO-KAT7 [7] it was 0.062 µM; in assay [10], 0.516 µM; at MOF-KAT8 [9] it was 8.4 µM; in assay [11], 0.349 µM; against TIP60-KAT5 [8], 0.056 µM. The figures for the half-inhibitory concentration (IC50) (at QKF-KAT6B; in assay [12]; against MOF-KAT8 [4]) were 0.027 µM, 0.057 µM and 6.48 µM, respectively.

In the case of `C#Cc1ccc2c(c1)S(=O)(=O)NC(C(=O)NCC(c1ccccc1)c1ccccc1)=N2` [Example 38, N-(2,2-diphenylethyl)-7-ethynyl-2H-benzo[e][1,2,4]thiadiazine-3-carboxamide 1,1-dioxide], the IC50 in assay [1] (Homo sapiens, 24 h) amounted to 1.5 µM; at HBO-KAT7 [2] it was 0.154 µM; against TIP60-KAT5 [3] it was 1.96 µM; at MOZ-KAT6A [5], 0.532 µM.
